Values of other authors, collected in patent US4913906A, “Novel controlled release dosage form of valproic acid” (priority 1985, dated 1990).

Legend:
[1] = all currently used antiepileptics

| Structure (SMILES) | elimination half-life compared with other antiepileptics [1] | fluctuations in the drug plasma level (chronic valpromide treatment) | absorption rate (compared with valproic acid) | biotransformation to VPA (in vivo) |
| --- | --- | --- | --- | --- |
| CCCC(CCC)C(=O)O [VPA, valproic acid] | shortest elimination half-life of all currently used antiepileptics |  |  |  |
| CCCC(CCC)C(N)=O [Valpromide, valpromide] |  | fewer fluctuations in the drug plasma level | slower absorption rate than valproic acid | biotransform to VPA before reaching the systemic circulation |
